The text below walks through data of patent US11793755B2, “Pharmaceutical composition for intraarticular delivery” (TAIWAN LIPOSOME CO., LTD., priority 2012, dated 2023).

Read-outs that look alike come from different tables or passages of the source.

The test system of assay [1] is collagen-induced arthritis. The assay is described as follows: Collagen-induced arthritis model, indomethacin sustained release composition (Example 6). In kind it is in vivo, Lewis rats.
From the text: (§1) During the 14-day study period, the rats were examined 3 times a week for the following outcomes: • Body weight loss, which is one of the parameters for evaluating the severity of arthritis. • Clinical Visual Arthritis Score, which is a visual score which correlates with the severity of arthritis. It was graded using an articular index of each paw, ranging from 0 to 4 (0=no edema or erythema on the foot pad; 1=slight edema and erythema on the foot pad; 2=mild edema and erythema on the foot pad; 3=moderate edema and erythema on the entire foot pad and the ankle; 4=severe edema and joint rigidity of the ankle, foot and digits). The Clinical Visual Arthritis Score for each rat was the sum of the articular index of both hind paws, with a maximum score of 8. • Hind paw volume and swelling. The hind paw volume was measured by UGO Plethysmometer 7149 measuring system. The final volume data was normalized with the average body weight (ml/kg) and edema was defined as the increase in paw volume on the day of measurement relative to day 0.
An in vivo evaluation of the effect of the indomethacin sustained release composition on arthritis was performed using 18 female Lewis rats (BioLASCO Taiwan Co, Ltd., Taiwan).
The arthritis treatments were initiated at the peak of the clinical visual arthritis score, which occurred at day 19. Eighteen rats were randomly divided into three groups (6 rats in each group): (1) control group (without any treatment, labeled “Control” in FIG. 9); (2) free indomethacin group (2 mg/kg indomethacin per dose, labeled “Indomethacin (2 mg/kg) in FIG. 9); and (3) indomethacin sustained release composition group (2 mg/kg indomethacin per dose; labeled “Indomethacin-BioSeizer (2 mg/kg) in FIG. 9). The rats in each group were given no treatment (control group), daily subcutaneous injection around the arthritis joints of free indomethacin or indomethacin sustained release composition, from day 19 to day 23.
The test system of assay [2] is collagen-induced arthritis.
From the text: as §1
In assay [3] the test system is arthritis induced with bovine type II collagen. The assay is described as follows: Four daily IA injections of DSP sustained release compositions in arthritic rats (Example 4). In kind it is in vivo, Lewis rats. Conditions: four daily IA injections day 26 to day 29.
Assay [4] has the same test system. Nature of the assay: Single IA injection of DSP sustained release compositions in arthritic rats (Example 3). In kind it is in vivo, Lewis rats. The method, then: Sixteen female rats, aged 8 weeks, were used in the study. The average body weight of the rats was from about 180 to about 200 grams.
To induce arthritis, each rat was immunized with 200 μg of bovine type II collagen (4 mg/ml stocked in 10 mM acetic acid, commercially available from Elastin Products, Owensville, USA) emulsified in Freund's incomplete adjuvant (commercially available from Sigma Chemical Co., USA) on day 0 and then again on day 7.
The rats were randomized into the following 4 study groups:
Group 1: 4 rats each received 100 μl of saline per paw (labeled “Saline Control in FIGS. 1-8)
Group 3: 4 rats each received 100 μl of the sustained release composition 1 per paw, wherein the concentration of DSP is 1 mg/ml (labeled “TLC399_1 mg/mg in FIGS. 1-4 and “TLC399_I 4 mg/ml in FIGS. 5-8).
Group 4: 4 rats each received 100 μl of the sustained release composition 2 per paw, wherein the concentration of DSP is 1.4 mg/ml (labeled “TLC399_1.4 mg/mg in FIGS. 1-4 and “TLC399_II 1.4 mg/ml in FIGS. 5-8).
The control or the DSP formulation was administered to both hind paws of the rat as a once only IA injection on day 19.

Assay [5] deals with collagen-induced arthritis. Nature of the assay: Collagen-induced arthritis model, etanercept sustained release composition (Example 8). In kind it is in vivo, Lewis rats.
[6] abbreviates: day 30, doses on day 23 and day 26.

Take `COc1ccc2c(c1)c(CC(=O)O)c(C)n2C(=O)c1ccc(Cl)cc1` [free indomethacin, Indomethacin sodium]: in assay [1] (before the first dose on day 19), the “average arthritis score before treatment” value was 7.4. The average arthritis score in assay [1] (day 20, 2 mg/kg indomethacin per dose, daily from day 19 to day 23) was determined as 5. Further, the arthritis score in assay [1] (day 25, after termination of treatment on day 23) is on record as 8. Moreover, the “time after termination of treatment until arthritis signs returned / amelioration continued” value in assay [1] (treatment day 19 to day 23) is on record as 2 days.
As to `CN(Cc1cnc2nc(N)nc(N)c2n1)c1ccc(C(=O)N[C@@H](CCC(=O)[O-])C(=O)[O-])cc1.[Na+].[Na+]` [free methotrexate, methotrexate sodium], in assay [2] (before the first dose on day 23), the “average arthritis score before treatment” value amounted to 3.7. The average arthritis score in assay [2] (day 26, 1 mg/kg methotrexate per dose on day 23 and day 26) is 1.4. Also, the arthritis score in assay [2] (setting [6]) was found to be 3.5. In addition, the “time after termination of treatment until arthritis signs returned / amelioration continued” value in assay [2] (doses on day 23 and day 26) came out at 4 days.
In the case of “dexamethasone sodium phosphate [free DSP]”, the “clinical visual arthritis score, lowest recorded” value in assay [3] (day 30) turned out to be 3. Besides, in assay [3], the “day on which paws were swollen again / first sign of paw swelling” value was 31 days and the “day on which relapsed arthritis signs became severe” value turned out to be 33 days. The “paw swelling thickness, both paws” value in assay [4] (day 23, volume normalized with body weight) is listed as “around 7.5 ml/kg”. Also, in assay [4] (day 26, single IA injection on day 19), the “clinical visual arthritis score” value amounted to 4.5. Also, in assay [4] (prior to the IA injection (day 19), sum of both hind paws, maximum 8), the “clinical visual arthritis score, average” value was determined as 4.0. Further, in assay [4] (single IA injection on day 19), the “day on which both paws became swollen again” value amounted to 23 days.
In turn, etanercept [free etanercept] showed an average arthritis score in assay [5] (day 26, 50 mg/kg etanercept per dose on day 23 and day 26) of 2.4. In assay [5] (setting [6]), this compound came in with an arthritis score of 4. Also, the “time after termination of treatment until arthritis relapsed / amelioration continued” value in assay [5] (doses on day 23 and day 26) came out at 3 days.
